# Measured values reported in article PMC6739136 (Neuropeptides, 2019).
# Test system: urinary bladder pressure, anesthetized minipigs
# Test: Cystometry
# Format: in vivo, minipig (Gottingen, Sinclair)
# Settings: GR 159897 1 mg/kg IV, 15 min prior to LMN-NKA, N=2, anesthetized minipigs, DT-063
structure (smiles),measurement,value
"COC1(C[S@@+]([O-])c2ccccc2)CCN(CCc2c[nH]c3ccc(F)cc23)CC1 [GR 159897, 5-Fluoro-3-[2-[4-methoxy-4-[[(R)-phenylsulphinyl]methyl]-1-piperidinyl]ethyl]-1H-indole]",effect on increase in bladder pressure induced by 100 μg/kg SC of LMN-NKA,blocked
